From patent publication US20100098657A1, “Method of Treating Cancer with Immunomodulatory Compounds and IgG” (priority 2007, published 2010) come the findings set out here.

A value given as a limit tells only on which side of the number the result lay.

Holding throughout (format): cell-based, human
Data set [1] deals with Rituximab-coated Namalwa cells. The data set is described as follows: ADCC assay: NK cell specific lysis of Rituximab-coated Namalwa cells. As to conditions: E:T=10:1; for EC50: Homo sapiens. The protocol:
Preparation of NK cells: Purified NK cells (5×10^4) were seeded in 96-well U-bottom plates in 100 μL of 10% RPMI-1640 medium, supplemented with human AB+ serum. […] The cells were then incubated at 37° C. overnight.
(§1) Preparation of Rituximab-coated target cancer cells: Various NHL cell lines (Namalwa, Raji, Farage, and Jeko-1) were treated with 20 μg/mL Rituximab (Rituximab, Genentech, Inc.) for 30 minutes at 37° C. Excess unbound Rituximab was then removed by a washing step.
Addition of Rituximab-coated target cells to NK cells: The Rituximab-coated target cells (5×103/100 μL/well) were added to the pretreated effector NK cells at a ratio of 10:1. The cells were then co-incubated for 4 hours at 37° C.
(§2) Cytotoxicity analysis: NK cell cytotoxicity against the tumor cell lines was analyzed using a standard lactate dehydrogenase release assay (CytoTox 96 Non-radioactive Cytotoxicity Assay, Promega) to measure ADCC in a 50 μL aliquot of supernatant. The experimental release was corrected by subtraction of the spontaneous release of effector cells at the corresponding dilution. Spontaneous release from target cells alone was <15% of the maximum release as determined with target cells lysed in 1% Triton X-100.
Determination of effector: target ratio: Specific lysis for each effector-to-target (E:T) cell ratio was calculated using the following formula: % specific lysis=([experimental release−spontaneous release]/[maximum release−spontaneous release])×100.

Data set [2] relates to Rituximab-coated Farage cells. The data set is described as follows: Monocyte-mediated lysis (ADCC) of Rituximab-coated Farage cells. As to conditions: E:T 50:1; lenalidomide at 10 μM; from 5%; no IL-2. As for the experimental part:
NK cells and monocytes were isolated from fresh, buffy-coated, whole blood by 30-minute incubation with RossetteSep cocktail (StemCell Technologies, Inc.) followed by Ficoll-Hypaque density gradient centrifugation. CD56+ NK cells were isolated to ˜85% purity and CD14+ monocytes were isolated to ˜80% purity as determined by flow cytometry.
as §1, §2
Determination of effector: target ratio: Specific lysis for each effector-to-target (E:T) cell ratio was calculated using the following formula: % specific lysis=([experimental release−spontaneous release]/[maximum release−spontaneous release])×100. […]

Data set [3] concerns Fas-L. Kind of data set: Fas-L expression on CD56+ NK cells (flow cytometry). The protocol: Cytometry was undertaken on 50 μL samples containing 1×10^6 cells/mL in washing buffer, 2% FBS with 0.1% NaN3 in PBS. Fluorochrome-conjugated antibodies, unconjugated antibodies, and isotype control mAb were obtained from PharMingen (San Diego, Calif.). The cells were stained with anti-CD56-PE, anti-FasL-FITC or isotype control mAb (1 μg/10^6 cells), and analyzed by flow cytometry according to the manufacturer's instructions.
(In general: In flow cytometry, cells or beads pass a laser one at a time.)

Data set [4] relates to granzyme B. Kind of data set: NK cell granzyme B production. As to conditions: over that observed with IL-2 alone; dose-dependent. As for the experimental part:
To determine whether lenalidomide enhances IFN-γ production, the following assay was performed. Human IgG (Sigma), at a concentration of 100 μg/mL was coated onto 96-well, flat-bottom plates at 4° C. overnight. The unbound IgG was then washed away. […] Lenalidomide (Revlimid®, Celgene Corporation, Summit, N.J.) was added to the wells in the concentration range of 0.008-5 μM. After a 48-hour incubation, the supernatants were harvested and interferon-gamma (IFN-γ), as well as granzyme B and perforin levels were measured.

Data set [5] deals with Trastuzumab-coated SK-BR-3 cells. The data set is described as follows: NK cell cytotoxicity against Trastuzumab-coated SK-BR-3 cells.
Data set [6] concerns Cetuximab-coated HCT-116 cells. The data set is described as follows: NK cell cytotoxicity against Cetuximab-coated HCT-116 cells. As to conditions: presence of IL-2.
Data set [7] concerns NK cells. The data set is described as follows: NK cell chemokine/cytokine production in response to Trastuzumab-coated SK-BR3 cells. The protocol: As shown herein, immunomodulatory compounds, either alone or in combination with other agents, can alter the expression of several growth factors.
The effects of immunomodulatory compounds lenalidomide and pomalidomide on NK cell chemokine/cytokine production in response to Trastuzumab-coated SK-BR3 cells were assessed using procedures substantially similar to those described in Section 6.6., above.

The mark [8] stands for this setting: presence of immobilized IgG and IL-2.

A word on the EC50: it is the concentration needed to bring the measured effect to its halfway point. Low readings indicate a more potent agent, high ones a less potent agent. On to `Nc1cccc2c1CN(C1CCC(=O)NC1=O)C2=O` (centres unmarked) [lenalidomide, 1-oxo-2-(2,6-dioxopiperidin-3-yl)-4-aminoisoindoline], for which, in data set [1] (presence of IL-2 or IL-12, vs Rituximab-only treated cells), the “increase of NK cell specific lysis” value is 5 fold. Besides, the 50% effective concentration (EC50) in data set [1] (IL-2) was 190 nM. In data set [1] (IL-12), this compound gave a half-maximal effective concentration (EC50) of 240 nM. Also, the “monocyte-mediated lysis (killing activity)” value in data set [2] is 20%. Besides, the “enhancement of NK cell Fas-L expression” value in data set [3] (lenalidomide 1 μM + IL-2 + immobilized IgG) is reported as > 2 fold. The “NK cell Fas-L expression” value in data set [3] (lenalidomide 1 μM + IL-2 + immobilized IgG, from <2%) came to 25%. The “percentage of CD56+ NK cells expressing Fas-L” value in data set [3] (lenalidomide 10 μM + immobilized IgG, from <5%) is given as > 10%. Further, the “NK cell Fas-L expression” value in data set [3] (lenalidomide 0.1-10 μM + IL-2 10 ng/mL + immobilized IgG) is recorded as “greater than that achieved by either agent alone”. In data set [4], the “granzyme B production” value was “enhanced”. Moreover, the NK cell cytotoxicity result in data set [5] (presence of IL-2) was “significantly increases”. Besides, the NK cell cytotoxicity entry in data set [5] (presence of IL-12) was “significantly increases”. Besides, in data set [6], the NK cell cytotoxicity result was “significantly increases”. Besides, in data set [7] (compound alone), the “production of any chemokines/cytokines” value is “did not induce”. In addition, in data set [7] (setting [8]), the “production of GM-CSF” value is given as “dose-dependently enhanced”, the “production of IL-8” value is reported as “dose-dependently enhanced”, the “production of IP-10” value is recorded as “dose-dependently enhanced” and the “production of MCP-1” value was “dose-dependently enhanced”. Also, in data set [7] (setting [8]), the “production of MIP-1α” value is given as “dose-dependently enhanced”, the “production of MIP-1β” value was “not” and the “production of RANTES” value was “dose-dependently enhanced”.
